Data on twelve compounds can be found in US20120178738A1, “DIBENZO [B,F] [1,4]OXAZAPINE COMPOUNDS” (ARYX THERAPEUTICS, INC., priority 2007, published 2012).

Series [1] has as its system pig liver esterase. Kind of series: Metabolism by pig liver esterase with and without human plasma proteins. It is filed as in vitro ADME. The procedure:
The esterase-mediated metabolism of these compounds was studied using commercially available pig liver esterase in the presence and absence of human plasma proteins. The disappearance of parent was monitored over the time course of the incubations using a LC-UV detection system.
A stock solution and working stock solution was prepared for each proprietary compound as described for the human liver microsomal incubations. Working solutions of pig liver esterase in potassium phosphate buffer (10 mM, pH 7.4) and pig liver esterase in human plasma protein were prepared by dissolving pig liver esterase (2.51 mg) in the phosphate buffer or plasma protein solutions, respectively.
A set of three Eppendorf microfuge tubes (1.5 mL) was appropriately labeled. To each tube was added 1.5 mL of phosphate buffer, pig liver esterase in buffer, or pig liver esterase in human plasma protein solution. These solutions were pre-incubated (37° C., 900 rpm) and the reactions were initiated by adding an aliquot (37.5 μL) of the working solution of proprietary compound to each tube. An aliquot (100 μL) from each tube was removed at time 0, 5, 30, 60, and 120 min and added to a tube containing acetonitrile (200 μL) to stop the reaction.
The samples were centrifuged at 14000 g for 15 minutes at 4° C. The supernatant was transferred to clean labeled HPLC injection vials and stored at −80° C. until analyzed. An aliquot of the supernatant (25 μL) was injected onto the LC-UV system for analysis.

Series [2] has as its target T1, human 5HT7 receptors (Homo sapiens, UniProt P34969).
T1 construct: expressed in transfected cells; host or cells: Chinese hamster ovary cells (membranes)
Briefly: h5-HT7 receptor radioligand binding ([3H]5-CT). To be noted: pKi reported on a scale of 1 through 5; read-out: 5HT7 (pKi) (converted). In a few lines: (§1)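 Test compounds at varying concentrations displaced a single concentration of radioligand from tissues or membrane fractions expressing each receptor, incubated to equilibrium, then filtered. Specific binding was taken as total minus binding in the presence of a reference blocker, and the corrected concentration–response gave receptor binding.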

Series [3] is described as follows: Metabolism in pooled human liver microsomes. It is filed as in vitro ADME. To be noted: for HLMs Enzyme: enzyme type metabolising the compound in HLMs (with/without NADPH); for half-life: pH 7.4, pooled human liver microsomes, disappearance of parent, read-out: HLMs t1/2. The method, then: Compounds were incubated in pooled human liver microsomes (HLMs) in the presence or absence of an NADPH-generating system. NADPH is required for the activity of cytochrome P450 (CYP) and other oxidative enzymes present in HLMs, but not for esterase activity. An additional incubation was carried out in the absence of HLM to assess compound stability. The disappearance of parent and the appearance of the corresponding acid metabolite were monitored over the time course of the incubations using LC-MS/MS.
A stock solution (20 mM) of each proprietary compound in DMSO was prepared and stored at −20° C. until needed. A working stock solution (0.2 mM) was prepared for each proprietary compound by adding an aliquot of the stock solution (10 μL) to acetonitrile (990 μL).
An aliquot of the HLM solution was removed from the −80° C. freezer and placed on ice. Tris Buffer (50 mM, pH 7.4) containing MgCl2 (hexahydrate, 5 mM) was pre-incubated in a 37° C. water bath. A set of Eppendorf microfuge tubes (1.5 mL) was appropriately labeled. To each tube was added Tris buffer with or without the NADPH generating system. An aliquot of pooled HLMs was added to all the incubations except those that were the buffer control.
Tubes were preincubated for 5 min in a shaking incubator bath (37° C., 900 rpm) and the reaction was initiated by adding an aliquot of the proprietary working solution (5 μL). The additions were timed carefully in order to coordinate the sample collections below. A small aliquot (50 μL) was removed at […] and delivered to the respective tubes containing dextrorphan (100 μL of 0.5 μg/mL solution) dissolved in methanol or acetonitrile. The samples were centrifuged at 14000 g for 15 minutes at 4° C. The supernatant was transferred to clean labeled HPLC injection vials and stored at −80° C. until analyzed. An aliquot of the supernatant (25 μL) was added to water (75 μL), mixed and injected onto the LC-MS/MS system for analysis. Results for some compounds of the invention can be found below in the table in Example 20.
For orientation: Liver microsomes are vesicles of endoplasmic reticulum, rich in cytochrome P450 enzymes.

In series [4] the target is T2, human D2L dopamine receptors (Homo sapiens, UniProt P14416).
T2 construct: expressed in transfected cells; host or cells: insect Sf9 cells (membranes)
Kind of series: hD2L receptor radioligand binding ([3H]spiperone). To be noted: for Ki: pKi reported on a scale of 1 through 5, read-out: D2L (pKi) (converted). In a few lines: as §1

Series [5] deals with apomorphine-induced disruption of swimming in mice. Kind of series: Antagonism of apomorphine-induced disruption of swimming in mice. The format is in vivo. The text has this:
The antagonism of apomorphine-induced disruption of swimming in mice (Warawa, E. J. et al. (2001). Behavioral approach to nondyskinetic dopamine antagonists: identification of seroquel. J. Med. Chem., 44, 372-389) was used to assess test compounds. Apomorphine-treated mice fail to swim and remain in place, pawing the walls of the swimming chamber, or making abortive swims. Certain atypical antipsychotic compounds “normalize” the swimming behavior of such mice.
The animals (Swiss Webster, female, about 20 g; Charles River) were administered compounds of the invention (0.1 μg/kg-30 mg/kg ip) […] before they were dosed with apomorphine HCl at 1.25 mg/kg sc. Twenty seven minutes after test compound injection, and fifteen minutes after apomorphine injection, each mouse was placed into a circular swimming tank for 2 minutes and the number of “swims” were counted. The height of the tank is 15 cm and the diameter is 28 cm. A circular obstacle, 10.5 cm in diameter and 17 cm high was placed in the center of the tank creating a circular swimming channel 8.75 cm wide. The water level is 5.5 cm and the water was kept at room temperature (about 20° C.). Marks are placed on the floor and side of the tank 180 degrees apart. A “swim” was scored each time a mouse swims from one mark to the other and the median number of swims for all the mice was used as the score for that treatment.

Series [6] deals with NMDA antagonist-induced deficits in prepulse inhibition in rats. Kind of series: Prepulse inhibition (PPI), NMDA antagonist (PCP)-induced deficit. To be noted: ip 45 min before, PCP 1.5 mg/kg s.c.
[7] abbreviates: pig liver esterase in potassium phosphate buffer, pH 7.4, pig liver esterase in phosphate buffer, no plasma protein.
Setting [8] is: pig, pig liver esterase in human plasma protein solution.

T2 sequence (P14416 whole entry): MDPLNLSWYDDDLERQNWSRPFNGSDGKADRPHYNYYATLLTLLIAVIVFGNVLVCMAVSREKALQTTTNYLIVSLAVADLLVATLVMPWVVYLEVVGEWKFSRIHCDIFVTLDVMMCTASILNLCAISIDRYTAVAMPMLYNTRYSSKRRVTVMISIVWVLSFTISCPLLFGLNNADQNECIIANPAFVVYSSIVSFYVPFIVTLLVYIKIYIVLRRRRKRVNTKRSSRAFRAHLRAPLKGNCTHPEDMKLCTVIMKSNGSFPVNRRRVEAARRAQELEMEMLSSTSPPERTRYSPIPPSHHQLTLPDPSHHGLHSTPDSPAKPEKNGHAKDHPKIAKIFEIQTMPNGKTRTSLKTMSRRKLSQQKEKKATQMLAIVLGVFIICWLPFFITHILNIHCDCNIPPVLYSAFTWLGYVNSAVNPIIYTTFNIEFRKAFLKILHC
T1 sequence (P34969 whole entry): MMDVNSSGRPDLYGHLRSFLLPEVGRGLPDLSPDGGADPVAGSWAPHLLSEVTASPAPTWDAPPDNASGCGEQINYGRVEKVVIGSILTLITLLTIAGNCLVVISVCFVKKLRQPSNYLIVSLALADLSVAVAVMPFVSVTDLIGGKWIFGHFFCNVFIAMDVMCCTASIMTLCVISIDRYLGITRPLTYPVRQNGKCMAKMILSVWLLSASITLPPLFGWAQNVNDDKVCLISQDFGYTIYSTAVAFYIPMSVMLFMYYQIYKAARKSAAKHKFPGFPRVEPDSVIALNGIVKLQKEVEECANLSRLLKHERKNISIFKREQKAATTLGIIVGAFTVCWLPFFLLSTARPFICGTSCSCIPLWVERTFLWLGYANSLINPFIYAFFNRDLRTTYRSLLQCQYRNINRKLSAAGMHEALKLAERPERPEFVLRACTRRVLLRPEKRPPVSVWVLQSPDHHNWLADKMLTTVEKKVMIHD

Regarding `O=C(C[C@H]1CN(C2=Nc3cc(Cl)ccc3Oc3ccccc32)CCN1)OC1CCCC1` [DR, (S,E)-cyclopentyl 2-(4-(8-chlorodibenzo[b,f][1,4]oxazepin-11-yl)piperazin-2-yl)acetate], the half-life at 4.9 µM in series [1] (setting [7]) is less than 5 min; in series [1] (setting [8]), 15 min. Besides, the figures for the Ki in series [2] and in series [4] were 1580 to 3890 nM and 631 to 2450 nM, respectively. Moreover, the “HLMs Enzyme” value in series [3] was “Esterase”. Besides, the half-life in series [3] amounted to 30 min.
Compound `O=C(C[C@H]1CN(C2=Nc3cc(Cl)ccc3Oc3ccccc32)CCN1)O[C@H]1CCOC1` [EQ, (S)-tetrahydrofuran-3-yl 2-((S)-4-((E)-8-chlorodibenzo[b,f][1,4]oxazepin-11-yl)piperazin-2-yl)acetate] returned a half-life at 4.9 µM in series [1] (setting [7]) of 5 min. The compound further registered a half-life at 4.9 µM in series [1] (setting [8]) of 30 min. For the same compound, in series [3], the “HLMs Enzyme” value was “Esterase” and the half-life amounted to 15 min.
With `CN1CCN(C2=Nc3cc(Cl)ccc3Oc3ccccc32)C[C@@H]1CC(=O)NCC(F)(F)C(F)(F)F` [EU, (S,E)-2-(4-(8-chlorodibenzo[b,f][1,4]oxazepin-11-yl)-1-methylpiperazin-2-yl)-N-(2,2,3,3,3-pentafluoropropyl)acetamide], the “Pig Liver Esterase (t1/2 min.) (+) plasma” value in series [1] (pig liver esterase in human plasma protein solution) is listed as “Stable”. In series [1] (pig liver esterase in phosphate buffer, no plasma protein), the “Pig Liver Esterase (t1/2 min.) (−) plasma” value is recorded as “Stable”. Further, the half-life in series [3] is 60 min.
Take `CCC(C)OC(=O)C[C@H]1CN(C2=Nc3cc(Cl)ccc3Oc3ccccc32)CCN1C` (stereo partly drawn) [DY, sec-butyl 2-((S)-4-((E)-8-chlorodibenzo[b,f][1,4]oxazepin-11-yl)-1-methylpiperazin-2-yl)acetate]: the half-life at 4.9 µM in series [1] (setting [7]) was less than 5 min; in series [1] (setting [8]), 30 min. Also, the Ki in series [2] was greater than 10000 nM. The “HLMs Enzyme” value in series [3] is given as “Esterase”. Further, in series [3], the half-life was less than 5 min.
Consider `O=C(C[C@H]1CN(C2=Nc3cc(Cl)ccc3Oc3ccccc32)CCN1)OC1CCOCC1` [DV, (S,E)-tetrahydro-2H-pyran-4-yl 2-(4-(8-chlorodibenzo[b,f][1,4]oxazepin-11-yl)piperazin-2-yl)acetate], for which the half-life at 4.9 µM in series [1] (setting [7]) was less than 5 min; in series [1] (setting [8]), 15 min. For the same compound, the Ki is 1580 to 3890 nM in series [2] and 2510 to 9770 nM in series [4]. In series [3], the “HLMs Enzyme” value is on record as “Esterase”. Further, the half-life in series [3] was found to be 60 min.
Consider `O=C(O)C[C@H]1CN(C2=Nc3cc(Cl)ccc3Oc3ccccc32)CCN1` [Compound Q, (S,E)-2-(4-(8-chlorodibenzo[b,f][1,4]oxazepin-11-yl)piperazin-2-yl)acetic acid], for which the “reversal of apomorphine-induced disruption of swimming” value in series [5] (3 and 10 mg/kg) is recorded as “reversed”. Also, in series [6], the “NMDA antagonist-induced deficits in prepulse inhibition” value is listed as “Restore”. Besides, in series [4] (in words), the “binds to D2L dopamine receptors” value is “not”. The Ki in series [4] is greater than 10000 nM.
In turn, `CCOC(=O)CC1CN(C2=Nc3ccc(F)cc3Oc3ccccc32)CCN1` (stereo not drawn) [J, (E)-ethyl 2-(4-(7-fluorodibenzo[b,f][1,4]oxazepin-11-yl)piperazin-2-yl)acetate] showed a half-life at 4.9 µM in series [1] (setting [7]) of less than 5 min. The same compound returned a half-life at 4.9 µM in series [1] (setting [8]) of 15 min. Besides, in series [3], the “HLMs Enzyme” value is listed as “Esterase” and the half-life was 10 min. Also, in series [4], the Ki is 2510 to 9770 nM.
In the same order, the values of `CCOC(=O)CC1CN(C2=Nc3cc(Cl)ccc3Oc3ccccc32)CCN1` (stereo not drawn) [A, (E)-ethyl 2-(4-(8-chlorodibenzo[b,f][1,4]oxazepin-11-yl)piperazin-2-yl)acetate] are less than 5 min, 15 min, “Esterase”, 30 min and 631 to 2450 nM.
Consider `CC(C)OC(=O)CC1CN(C2=Nc3cc(Cl)ccc3Oc3ccccc32)CCN1` (stereo not drawn) [L, (E)-isopropyl 2-(4-(8-chlorodibenzo[b,f][1,4]oxazepin-11-yl)piperazin-2-yl)acetate], for which the values for the half-life at 4.9 µM in series [1] (setting [7]) and in series [1] (setting [8]) were less than 5 min and 30 min, respectively. In addition, in series [3], the half-life was determined as 30 min. Besides, the Ki in series [4] is 631 to 2450 nM.
With `CC(C)OC(=O)CC1CN(C2=Nc3ccc(F)cc3Oc3ccccc32)CCN1` (stereo not drawn) [M, (E)-isopropyl 2-(4-(7-fluorodibenzo[b,f][1,4]oxazepin-11-yl)piperazin-2-yl)acetate], the half-life at 4.9 µM is less than 5 min in series [1] (setting [7]) and 15 min in series [1] (setting [8]). For the same compound, the half-life in series [3] turned out to be 30 min. The Ki in series [4] is 2510 to 9770 nM.
Turning to `CCOC(=O)C[C@H]1CN(C2=Nc3cc(Cl)ccc3Oc3ccccc32)CCN1CCC(C)C` [ER, (S,E)-ethyl 2-(4-(8-chlorodibenzo[b,f][1,4]oxazepin-11-yl)-1-isopentylpiperazin-2-yl)acetate], the half-life at 4.9 µM in series [1] (setting [7]) was less than 5 min; in series [1] (setting [8]), 60 min. In series [3], the “HLMs Enzyme” value is on record as “Esterase”. In addition, the half-life in series [3] was determined as 5 min.
As to `CCOC(=O)C[C@H]1CN(C2=Nc3cc(Cl)ccc3Oc3ccccc32)CCN1` [Compound K, (S,E)-ethyl 2-(4-(8-chlorodibenzo[b,f][1,4]oxazepin-11-yl)piperazin-2-yl)acetate], in series [5] (ip, apomorphine HCl 1.25 mg/kg sc), the “antagonizing the apomorphine-induced disruption of swimming, potency vs clozapine” value is recorded as “more potent than clozapine”. For the same compound, the Ki was 631 to 1550 nM in series [2] and 631 to 2450 nM in series [4]. Further, in series [6], the “NMDA antagonist-induced deficits in prepulse inhibition” value was “Restore”. The “IC50 binding affinity for D2L receptors” value in series [4] (in words) is given as “low micromolar”. For the same compound, the “binds to D2L dopamine receptors” value in series [4] (in words) is given as “Binds”. Also, in series [4] (relative to clozapine, in words), the “affinity for the D2L receptor compared with clozapine” value is reported as “comparable”.
